Here are results for 33 compounds from patent US20150291625A1 (PFIZER INC., priority 2012, published 2015).

For assay [1], the target named is T1, D1 (Homo sapiens, UniProt P21728). Put plainly: Human D1 receptor binding assay ([3H]-SCH23390 competition). The settings on record: Human D1 Receptor Binding, Ki (nM), Geometric mean of 2-4 determinations, a: >=5 determinations, d: single determination.
The target in assay [2] is T1, D1. Put plainly: D1 cAMP HTRF assay (HEK293T/hD1#1 stable cell line). The assay is classed as cell-based. Set-up: expressed in transfected cells. The method, boiled down:
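Cells from a stable human D1 HEK293T line in PBS/0.5 μM IBMX were incubated with compound for 30 min at room temperature, and cAMP was then detected by competitive HTRF (1 h, room temperature). A cAMP standard curve converted ratios to cAMP, giving ratio-based and cAMP-based EC50 values.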
In general terms: In TR-FRET formats the signal depends on donor and acceptor labels being close together.

Several values for one entry are separate records, joined by “and”; a condition that tells them apart may be missing. Equal entries are not always repeated. Structures can show the parent of a compound that is named as a salt. Bounds are passed on as bounds.

T1 sequence (P21728 whole entry): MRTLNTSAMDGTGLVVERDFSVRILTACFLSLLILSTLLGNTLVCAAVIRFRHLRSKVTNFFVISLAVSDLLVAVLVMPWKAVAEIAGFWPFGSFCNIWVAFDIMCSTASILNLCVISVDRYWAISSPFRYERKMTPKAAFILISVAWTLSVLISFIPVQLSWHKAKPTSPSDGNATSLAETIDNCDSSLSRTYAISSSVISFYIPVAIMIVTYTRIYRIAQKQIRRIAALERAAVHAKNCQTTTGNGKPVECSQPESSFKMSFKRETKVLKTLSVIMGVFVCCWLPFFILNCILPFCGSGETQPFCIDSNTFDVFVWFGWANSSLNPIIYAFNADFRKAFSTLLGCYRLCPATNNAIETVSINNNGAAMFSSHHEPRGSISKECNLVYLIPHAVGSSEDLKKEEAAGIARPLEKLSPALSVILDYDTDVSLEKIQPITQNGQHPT

For orientation: Ki means a dissociation constant, usually derived from enzyme kinetics or from competition with a known ligand. Read a high Ki as a looser hold on the target. In general, EC50 refers to the concentration at which the effect is half-maximal. For `Cc1cc(Oc2nccc3occc23)ccc1-c1c(C)nc(C)c(=O)n1C` [Example 117, 6-[4-(furo[3,2-c]pyridin-4-yloxy)-2-methylphenyl]-1,3,5-trimethylpyrazin-2(1H)-one], affinity at D1 [1] was put at a Ki of 23.1 nM. This compound also had a 50% effective concentration (EC50) at D1 [2] of 0.452 µM.
For `Cc1cc(Oc2nccc3occc23)ccc1-c1c(C)cnc2nccn12` [Example 110, 5-[4-(furo[3,2-c]pyridin-4-yloxy)-2-methylphenyl]-6-methylimidazo[1,2-a]pyrimidine], in that order: 2.89 nM and 0.0338 µM.
`CCc1noc(COc2cc(Oc3nccc4occc34)ccc2-c2cccnc2C)n1` [Example 78, 4-{3-[(3-ethyl-1,2,4-oxadiazol-5-yl)methoxy]-4-(2-methylpyridin-3-yl)phenoxy}furo[3,2-c]pyridine] showed an inhibitory constant (Ki) on D1 [1] of 48.3 nM. The EC50 at D1 [2] was 0.885 µM and 1.23 µM.
`Cc1cc(Oc2nccc3occc23)ccc1-c1cncc2nccn12` [Example 189, 5-[4-(furo[3,2-c]pyridin-4-yloxy)-2-methylphenyl]imidazo[1,2-a]pyrazine, trifluoroacetate salt] had an inhibition constant Ki on D1 [1] of 77.6 nM. For the same compound, the 50% effective concentration (EC50) on D1 [2] was determined as 0.308 µM.
On to `Cc1cc(Oc2nccc3occc23)ccc1-c1c(C)ncnc1N1CCC1` [Example 95, 4-{4-[4-(azetidin-1-yl)-6-methylpyrimidin-5-yl]-3-methylphenoxy}furo[3,2-c]pyridine, formate salt], for which the Ki on D1 [1] worked out at 27.3 nM. Also, a half-maximal response on D1 [2] (EC50) required 0.444 µM.
For `Cc1cc(Oc2nccc3occc23)ccc1-c1c(C)ncnc1N1CC[C@H](F)C1` [Example 163, 4-(4-{4-[(3S)-3-fluoropyrrolidin-1-yl]-6-methylpyrimidin-5-yl}-3-methylphenoxy)furo[3,2-c]pyridine, formate salt], in that order: 12.8 nM and 0.389 µM.
`Cc1ncc2nccn2c1-c1ccc(Oc2nccc3occc23)cc1F` [Example 65, 5-[2-fluoro-4-(furo[3,2-c]pyridin-4-yloxy)phenyl]-6-methylimidazo[1,2-a]pyrazine] registered a Ki on D1 [1] of 61.1 nM. Moreover, at D1 [2], the EC50 was 0.193 µM and 0.3 µM.
In turn, `CNc1ncnc(C)c1-c1ccc(Oc2nccc3occc23)cc1C` [Example 81, 5-[4-(furo[3,2-c]pyridin-4-yloxy)-2-methylphenyl]-N,6-dimethylpyrimidin-4-amine] had a Ki at D1 [1] of 270 nM. This compound also gave an EC50 at D1 [2] of 1.77 µM.
For `Cc1c(-c2ccc(Oc3nccc4occc34)cc2)n(C)c(=O)[nH]c1=O` [Example 216, 6-[4-(furo[3,2-c]pyridin-4-yloxy)phenyl]-1,5-dimethylpyrimidine-2,4(1H,3H)-dione, trifluoroacetate salt], in that order: 4.2 nM and 0.00938 µM.
Take `Cc1cc(Oc2nccc3occc23)ccc1-c1c(C)cnc2nccn12` (single isomer, unassigned) [Example 147, 5-[4-(furo[3,2-c]pyridin-4-yloxy)-2-methylphenyl]-6-methylimidazo[1,2-a]pyrimidine]: the inhibitory constant (Ki) on D1 [1] is 3.6 nM. The compound also had a half-maximal effective concentration (EC50) on D1 [2] of 0.068 µM.
For `Cc1cc(Oc2nccc3occc23)ccc1-c1cn[nH]c(=O)c1C` [Example 125, 5-[4-(furo[3,2-c]pyridin-4-yloxy)-2-methylphenyl]-4-methylpyridazin-3(2H)-one], in that order: 23 nM and 0.0917 µM.
On D1 [1], `Cc1ncnc(C)c1-c1ccc(Oc2nccc3occc23)c2cnn(C)c12` [Example 148, 4-{[7-(4,6-dimethylpyrimidin-5-yl)-1-methyl-1H-indazol-4-yl]oxy}furo[3,2-c]pyridine, trifluoroacetate salt] gave an inhibition constant (Ki) of 111 nM. The concentration giving a half-maximal response (EC50) at D1 [2] worked out at 0.777 µM.
Consider `Cc1ncnc(C)c1-c1ccc(Oc2nccc3occc23)cc1O` [Example 72, 2-(4,6-dimethylpyrimidin-5-yl)-5-(furo[3,2-c]pyridin-4-yloxy)phenol], for which the affinity on D1 [1] corresponds to a Ki of 91.4 nM. Moreover, it took 0.989 µM to reach a half-maximal effect at D1 [2] (EC50).
For `Cc1cc(Oc2nccc3occc23)ccc1-c1c(C)cnnc1Cl` [Example 11, 4-[4-(3-Chloro-5-methylpyridazin-4yl)-3-methylphenoxy]furo[3,2-c]pyridine], in that order: 11.8 nM and 0.186 µM.
For `c1cc2occc2c(Oc2ccc(-c3nccc4occc34)cc2)n1` [Example 119, 4-[4-(furo[3,2-c]pyridin-4-yloxy)phenyl]furo[3,2-c]pyridine], in that order: 2240 nM and > 11.2 µM.
For `Cc1cc(Oc2nccc3occc23)ccc1-c1nc(=O)[nH]nc1C` [Example 177, 5-[4-(furo[3,2-c]pyridin-4-yloxy)-2-methylphenyl]-6-methyl-1,2,4-triazin-3(2H)-one], in that order: 46.4 nM and 2.55 µM.
Regarding `Cn1cncc1CNc1cc(Oc2nccc3occc23)ccc1-c1cccc2nccn12` [Example 48, 5-(furo[3,2-c]pyridin-4-yloxy)-2-(imidazo[1,2-a]pyridin-5-yl)-N-[(1-methyl-1H-imidazol-5-yl)methyl]aniline, trifluoroacetate salt], the inhibitory constant (Ki) on D1 [1] is 68.8 nM. The compound also gave an EC50 on D1 [2] of 2.07 µM.
For `Cc1ncnc(C)c1-c1c(F)cc(Oc2nccc3occc23)cc1F` [Example 114, 4-[4-(4,6-dimethylpyrimidin-5-yl)-3,5-difluorophenoxy]furo[3,2-c]pyridine], in that order: 21.2 nM and 0.103 µM.
For `Cc1nccnc1-c1ccc(Oc2nccc3occc23)cc1OCc1c(C)noc1C` [Example 66, 4-{3-[(3,5-dimethyl-1,2-oxazol-4-yl)methoxy]-4-(3-methylpyrazin-2-yl)phenoxy}furo[3,2-c]pyridine, formate salt], in that order: 85.4 nM and 0.737 µM.
For `Cc1cc(Oc2nccc3occ(C#N)c23)ccc1-c1c(C)ncnc1C` [Example 210, 4-[4-(4,6-dimethylpyrimidin-5-yl)-3-methylphenoxy]furo[3,2-c]pyridine-3-carbonitrile], in that order: 18.8 nM and 0.655 µM.
As for `Cc1cc(Oc2nccc3occc23)ccc1-c1c(C)ncnc1N(C)C` [Example 165, 5-[4-(furo[3,2-c]pyridin-4-yloxy)-2-methylphenyl]-N,N,6-trimethylpyrimidin-4-amine, trifluoroacetate salt], the affinity on D1 [1] corresponds to a Ki of 15.6 nM. Further, at D1 [2], the concentration for a half-maximal effect (EC50) was 0.182 µM.
For `Cc1noc(C)c1COc1cc(Oc2nccc3occc23)ccc1-c1cccc2nccn12` [Example 186, 4-{3-[(3,5-dimethyl-1,2-oxazol-4-yl)methoxy]-4-(imidazo[1,2-a]pyridin-5-yl)phenoxy}furo[3,2-c]pyridine, trifluoroacetate salt], in that order: 64.6 nM and 1.02 µM.
For `COc1cccc2c(-c3ccc(Oc4nccc5occc45)cc3)ncnc12` [Example 208, 4-[4-(furo[3,2-c]pyridin-4-yloxy)phenyl]-8-methoxyquinazoline], in that order: 170 nM and 1.55 µM.
For `Cc1cccnc1COc1cc(Oc2nccc3occc23)ccc1-c1nccnc1C` [Example 68, 4-{4-(3-methylpyrazin-2-yl)-3-[(3-methylpyridin-2-yl)methoxy]phenoxy}furo[3,2-c]pyridine, formate salt], in that order: 154 nM and 1.48 µM.
`Cc1ncnc(C)c1-c1ccc(Oc2nccc3occc23)c2[nH]ccc12` [Example 23, 4-{[4-(4,6-Dimethylpyrimidin-5-yl)-1H-indol-7-yl]oxy}furo[3,2-c]pyridine] registered a Ki at D1 [1] of 30.6 nM. On D1 [2], this compound displayed a 50% effective concentration (EC50) of 0.848 µM.
For `Cc1cc(Nc2nccc3occc23)ccc1-c1c(C)ncnc1C` [Example 132, N-[4-(4,6-dimethylpyrimidin-5-yl)-3-methylphenyl]furo[3,2-c]pyridin-4-amine, formate salt], in that order: 39.9 nM and 2.26 µM.
On D1 [1], `COc1ccc2cnccc2c1-c1ccc(Oc2nccc3occc23)cc1` [Example 168, 5-[4-(furo[3,2-c]pyridin-4-yloxy)phenyl]-6-methoxyisoquinoline, trifluoroacetate salt] yielded a Ki of 28.6 nM. On D1 [2], the EC50 is 0.458 µM.
For `Cc1cnnc(C)c1-c1ccc(Oc2nccc3occc23)cc1F` [Example 140, 4-[4-(3,5-dimethylpyridazin-4-yl)-3-fluorophenoxy]furo[3,2-c]pyridine], in that order: 48 nM and 0.292 µM.
For `Cc1ncnc(C)c1-c1ccc(Oc2nccc3occc23)cc1CF` [Example 21, 4-[4-(4,6-Dimethylpyrimidin-5-yl)-3-(fluoromethyl)phenoxy]furo[3,2-c]pyridine], in that order: 36.2 nM and 0.0858 µM.
At D1 [1], `Cc1nc2cnccc2n1-c1ccc(Oc2nccc3occc23)cc1` [Example 31, 1-[4-(furo[3,2-c]pyridin-4-yloxy)phenyl]-2-methyl-1H-imidazo[4,5-c]pyridine] returned a Ki of 316 nM. The half-maximal effective concentration (EC50) at D1 [2] was 1.03 µM and 1.19 µM.
Compound `Cc1cc(Oc2nccc3occc23)ccc1-c1c(C)ncc2nc(C(F)(F)F)cn12` [Example 80, 5-[4-(furo[3,2-c]pyridin-4-yloxy)-2-methylphenyl]-6-methyl-2-(trifluoromethyl)imidazo[1,2-a]pyrazine] came in with an inhibition constant Ki on D1 [1] of 6.13 nM. For the same compound, the EC50 on D1 [2] is 1.2 µM and 0.987 µM.
With `Cn1nccc1-c1ccc(Sc2nccc3occc23)cc1` [Example 8, 4-{[4-(1-Methyl-1H-pyrazol-5-yl)phenyl]sulfanyl}furo[3,2-c]pyridine, trifluoroacetate salt], the inhibition constant Ki on D1 [1] amounted to 283 nM. At D1 [2], this compound gave an EC50 of 0.854 µM.
For `COC(=O)COc1cc(Oc2nccc3occc23)ccc1-c1cccc2nccn12` [Example 44, methyl [5-(furo[3,2-c]pyridin-4-yloxy)-2-(imidazo[1,2-a]pyridin-5-yl)phenoxy]acetate, trifluoroacetate salt], in that order: 129 nM and 0.651 µM.
